Literature values as cited in patent US10344034B2, “Pyrazolopyrimidone or Pyrrolotriazone derivatives, method of preparing same, and pharmaceutical applications thereof” (Shanghai Hengrui Pharmaceutical Co., Ltd., priority 2013, dated 2019).

Conditions: cited from earlier work

In the case of `COc1cccc(-c2c(C)n(Cc3c(F)cccc3C(F)(F)F)c(=O)n(C[C@H](NCCCC(=O)O)c3ccccc3)c2=O)c1F` [elagolix, Elagolix], the safety and tolerability (endometriosis phase II trial) is given as “well verified” and the serum estrogen level (women with endometriosis, elagolix 150 or 250 mg qd, vs leuprorelin depot and placebo) is given as “lower than that of the leuprorelin treatment group and placebo group”.
